CS(=O)(=O)c1ccc([C@@H](O)[C@@H](CF)NC(=O)C(Cl)Cl)cc1
solubility (mole fraction)
Conditions | 283.15 K | 288.15 K | 293.15 K | 298.15 K | 303.15 K | 308.15 K | 313.15 K | 318.15 K | 323.15 K
in 2-ethylhexanol | 0.000183 | 0.000254 | 0.000319 | 0.000383 | 0.000521 | 0.000635 | 0.000813 | 0.00103 | 0.00129
in ethanol | 0.00151 | 0.00196 | 0.00244 | 0.00309 | 0.00369 | 0.00461 | 0.00562 | 0.00702 | 0.00842
in isobutanol | 0.000293 | 0.000385 | 0.000497 | 0.000613 | 0.000819 | 0.00104 | 0.00137 | 0.0017 | 0.00224
in isopentanol | 0.000487 | 0.000586 | 0.000765 | 0.000959 | 0.00123 | 0.00149 | 0.00191 | 0.00238 | 0.00285
in isopropanol | 0.00061 | 0.00076 | 0.00101 | 0.00133 | 0.00169 | 0.00218 | 0.00278 | 0.00363 | 0.00457
in n-butanol | 0.000512 | 0.000648 | 0.000821 | 0.00112 | 0.0014 | 0.00183 | 0.00236 | 0.00302 | 0.00385
in n-propanol | 0.000974 | 0.00125 | 0.00165 | 0.00215 | 0.00269 | 0.00359 | 0.00437 | 0.00563 | 0.00712
in propionic acid | 0.00027 | 0.000347 | 0.000447 | 0.000562 | 0.00073 | 0.000961 | 0.00123 | 0.0016 | 0.00211
